# Tests used:
# [1] = Chrom logD determination by gradient HPLC (CHI); assay type: physicochemical; settings: pH 7.4, Luna C18 column; for chromatographic logD: reversed-phase HPLC, Phenomenex Luna C18 column
# Protocol: clogP values were calculated for all compounds using the Percepta software. Chrom logD was determined experimentally using a procedure described in the supplementary data. Furthermore, the correlation between calculated clogP values and experimentally determined Chrom log D values were explored for molecules containing boron functional groups such as boronic acids and benzoxaboroles.
# Chrom logD values were determined from the following equation: Chrom logD = 0.0857 × CHI − 2 [39]. Chromatographic hydrophobic index (CHI) values were determined from the gradient retention times (RT). These values approximately corresponded to the volume percentage of organic component in the mobile phase when the compound elutes. CHI values were determined at pH 7.4. Chromatograms were obtained using on Agilent 1100 Series liquid chromatography system with an HPLC diode-array detector (DAD) coupled with a Micromass Quattro micro atmosphere pressure ionization (API) mass spectrometer. The column used for analyses was Phenomenex Luna C18 (50 × 3 mm, 5 µm, 100 Å). The column was maintained at 25 °C. The flow rate was 1.0 mL/min. The mobile phase was composed of 50 mM ammonium acetate in water at pH 7.4 (solvent A) and acetonitrile (solvent B). The solvent gradient condition was initially 0.5% B, and then it increased linearly to 100% B over 3.0 min, remaining at 100% B for 0.5 min, then decreasing linearly to 0% B over 0.2 min followed by an equilibration period of 1.3 min prior to the next injection. The total experimental duration was 5 min. Injection volume was 2.0 µl. Samples temperature was maintained at 15 °C in the autosampler chamber. A group of ten standard compounds having different CHI values was used for calibration of RP-HPLC [40].
# Autotaxin (ATX) = target: T1, Autotaxin (ATX) (Homo sapiens, UniProt Q13822); experiment: biochemical choline detection assay for ATX inhibition, LysoPC substrate; settings: for IC50: mean standard deviation from duplicate experiments
# T1 construct: we added 10 μL of recombinant ATX (2 ng/mL) in a Tris–HCl buffer
# Protocol: All 21 new benzoxaboroles derivatives prepared herein were evaluated for ATX inhibition in vitro using a biochemical choline detection assay, combining elements of assays already described in the literature.
# […] Mother plates with serial dilutions of compounds in pure DMSO were prepared from 10 mM DMSO stock solutions. Storplate-384-deep-well-V plates (Perkin Elmer) were also used for mother plate preparation. Compounds were diluted in a DMSO in a ratio of 1:3. An aliquot of 200 nL of compound solution was transferred from the mother plate to the test plate with a Mosquito nanoliter liquid handling system (TTP labtech). The assay was performed in Spectra-Plate-384 TC, transparent, (Perkin Elmer, Cat#6007658) using a 20 µL assay volume. The total final percentage of DMSO in the test media was 1%. Compounds were tested at 11 consecutive three-fold dilutions starting from 50 µM (final concentrations) in duplicate, covering range of 0.0008–50 μM to determine IC50 values. […] After dispensing of compounds directly to the dry plate, we added 10 μL of recombinant ATX (2 ng/mL) in a Tris–HCl buffer (140 mM NaCl, 1mM MgCl2, 5 mM KCl, 3 mM CaCl2, 1 mg/ml bovin serum albumin (BSA, fatty acid free) and 100 mM Tris–HCl, pH 9). […] The above-described solution with dimethyl sulfoxide but without the test compound was used as a control. LysoPC without ATX was used as a control for the autohydrolysis of LysoPC. After 1.5 h of incubation, 20 μL of stop solution and developer was added {Choline oxidase (1.2 U/mL), Peroxidase (1.2 U/mL), TOOS (2.7 mM), 4-Aminoantipyrine (2.7 mM), and EDTA (50 mM)} to the reaction mixture, and absorbance was measured after 30 min of incubation. The absorbance was measured by using Perkin-Elmer EnVision plate reader (λ = 555 nm). Data were analyzed using GraphPad Prism software. The calculation of IC50 data, curves and quality control (QC) analysis was made by using Excel tools and GraphPadPrism software. Briefly, individual concentration–effect curves were generated by plotting the logarithm of the tested concentration of tested compounds (X) vs. corresponding percentage inhibition values (Y) using a least squares (ordinary) fit. […] QC criteria parameters (Z,’ S:B, ΔmP) were checked for every plate.
# [2] = metabolic stability in human liver microsomes; assay type: in vitro ADME
# Protocol: (§1) Metabolic stability was assessed in rat and human liver microsomes, with testosterone and propranolol as positive controls. All compounds, at a final concentration of 1 μM (0.03% DMSO), were incubated in a phosphate buffer (50 mM, pH 7.4) for 60 min at 37 °C, together with liver microsomes in the absence and presence of NADPH generating system (nicotinamide adenine dinucleotide phosphate (NADP, 2 mM), glucose-6-phosphate (20 mM), glucose-6-phosphate dehydrogenase (6U) and magnesium chloride (2 mM)). Aliquots were taken at different time points (0, 10, 20, 30, 45 and 60 min), followed by reaction termination by addition of CH3CN:CH3OH 2:1 v/v, containing diclofenac as internal standard (IS). Samples were then centrifuged (at 2000 rpm at 4 °C for 30 min), and resulting supernatants were subjected to LC/MS/MS analysis. The in vitro half-life was calculated in GraphPadPrism software from % remaining vs. time regression using non-linear regression fit. In vitro intrinsic clearance, expressed as mL/min/g liver, was determined from in vitro half-life and normalized for the protein concentration in the incubation mixture, assuming a 52.5 mg/g liver.
# [3] = in vitro plasma stability, rat plasma; assay type: in vitro ADME; settings: after 4 h
# Protocol: (§2) The in vitro plasma stability of the test compounds was studied in human and rat plasma with propranolol, benflorex, and eucatropine as control substances. All compounds at final concentrations of 5 μM (0.5% DMSO) were incubated in a phosphate buffer (50 mM, pH 7.4) for 4 h at 37 °C together with plasma. Aliquots were taken at different time points (0, 30, 120 min and 4 h), followed by reaction termination by the addition of CH3CN:CH3OH 2:1 v/v., which contained diclofenac and warfarin as internal standards (IS). Samples were then centrifuged (at 1600 rpm at 4 °C for 30 min), and the resulting supernatants were subjected to LC/MS/MS analysis. Results are expressed as % remaining.
# [4] = kinetic solubility, turbidimetric method; assay type: physicochemical; settings: 37 °C, pH 7.4, aqueous buffer, kinetic from dmso stock, Solubility (kinetic solubility range)
# Protocol: Turbidimetric solubility allows for a rapid determination of kinetic solubility by using small amounts of the test compound. Assay controls were α-naphtoflavone (low solubility) and sulfaphenazole (expected solubility >100µM). DMSO stock solutions (10 mM) of each compound were first serially diluted 1 in 3 in DMSO and then spiked into an aqueous buffer (100 mM PBS), resulting in 5 following final concentration: 100, 30, 10, 3 and 1 µM (each concentration was tested in duplicate). […] Compound samples were compared to a solvent control in an aqueous buffer (DMSO 1% final concentration), and a significant increase of sample absorbance was considered to have occurred when the absorbance reached a 3-fold standard deviation of the average DMSO absorbance. The calculation of solubility range data was made by Excel tool software. Results are expressed as an estimated solubility range.
# [5] = metabolic stability in rat liver microsomes; assay type: in vitro ADME
# Protocol: as §1
# [6] = in vitro plasma stability, human plasma; assay type: in vitro ADME; settings: after 4 h
# Protocol: as §2
# [7] = choline release assay using as a substrate
# [8] = choline release assay using LPC C16:0 as a substrate
smiles,measurement,setting,value
"COc1cc(COC(=O)N2CCN(C3CCN(C(=O)c4ccc5c(c4)COB5O)C3)CC2)cc(OC)c1 (centres unmarked) [Compound 48, (3,5-dimethoxyphenyl)methyl 4-[1-(1-hydroxy-3H-2,1-benzoxaborole-5-carbonyl)pyrrolidin-3-yl]piperazine-1-carboxylate]",chromatographic logD,[1],3.03
same,IC50,Autotaxin (ATX); [7],15 ± 6.07 µM
"Cc1cc(C)cc(COC(=O)N2CCN(C3CN(C(=O)c4ccc5c(c4)COB5O)C3)CC2)c1 [Compound 46, (3,5-dimethylphenyl)methyl 4-[1-(1-hydroxy-3H-2,1-benzoxaborole-5-carbonyl)azetidin-3-yl]piperazine-1-carboxylate]",chromatographic logD,[1],4.01
same,IC50,Autotaxin (ATX); [7],5.1 ± 2.75 µM
"Cc1cc(C)cc(COC(=O)N2CCN(C3CCN(C(=O)c4ccc5c(c4)COB5O)C3)CC2)c1 (centres unmarked) [Compound 44, (3,5-dimethylphenyl)methyl 4-[1-(1-hydroxy-3H-2,1-benzoxaborole-5-carbonyl)pyrrolidin-3-yl]piperazine-1-carboxylate]",chromatographic logD,[1],3.99
same,IC50,Autotaxin (ATX); [7],4.7 ± 1.14 µM
"O=C(OCc1ccccc1)N1CCN(C2CN(C(=O)c3ccc4c(c3)COB4O)C2)CC1 [Compound 42, benzyl 4-[1-(1-hydroxy-3H-2,1-benzoxaborole-5-carbonyl)azetidin-3-yl]piperazine-1-carboxylate]",chromatographic logD,[1],2.9
same,IC50,Autotaxin (ATX); [7],> 50 µM
"COc1cc(COC(=O)N2CCN(C3CN(C(=O)c4ccc5c(c4)B(O)OC5)C3)CC2)cc(OC)c1 [Compound 49, (3,5-dimethoxyphenyl)methyl 4-[1-(1-hydroxy-3H-2,1-benzoxaborole-6-carbonyl)azetidin-3-yl]piperazine-1-carboxylate]",chromatographic logD,[1],3.21
same,IC50,Autotaxin (ATX); [7],11 ± 4.59 µM
COc1cc(COC(=O)N2CCN(C3CN(C(=O)c4ccc5c(c4)COB5O)C3)CC2)cc(OC)c1 [Compound 50],Chrom logD,[1],3.07
same,IC50,Autotaxin (ATX); [8],13 ± 3.26 µM
"O=C(OCc1ccccc1)N1CCN(C2CCN(C(=O)c3ccc4c(c3)COB4O)C2)CC1 (centres unmarked) [Compound 40, benzyl 4-[1-(1-hydroxy-3H-2,1-benzoxaborole-5-carbonyl)pyrrolidin-3-yl]piperazine-1-carboxylate]",chromatographic logD,[1],2.9
same,IC50,Autotaxin (ATX); [7],> 50 µM
"O=C(OCc1cc(Cl)cc(Cl)c1)N1CCN(C2CCN(C(=O)c3ccc4c(c3)COB4O)C2)CC1 (centres unmarked) [Compound 32, (3,5-dichlorophenyl)methyl 4-[1-(1-hydroxy-3H-2,1-benzoxaborole-5-carbonyl)pyrrolidin-3-yl]piperazine-1-carboxylate]",chromatographic logD,[1],4.38
same,IC50,Autotaxin (ATX); [7],0.37 ± 0.35 µM
same,"ATX inhibition, range of activity",Autotaxin (ATX); in words,nanomolar range
"COc1cc(COC(=O)N2CCN(C3CCN(C(=O)c4ccc5c(c4)B(O)OC5)C3)CC2)cc(OC)c1 (centres unmarked) [Compound 47, (3,5-dimethoxyphenyl)methyl 4-[1-(1-hydroxy-3H-2,1-benzoxaborole-6-carbonyl)pyrrolidin-3-yl]piperazine-1-carboxylate]",chromatographic logD,[1],3.19
same,IC50,Autotaxin (ATX); [7],14 ± 5.5 µM
"O=C(OCc1ccccc1)N1CCN(C2CN(C(=O)c3ccc4c(c3)B(O)OC4)C2)CC1 [Compound 41, benzyl 4-[1-(1-hydroxy-3H-2,1-benzoxaborole-6-carbonyl)azetidin-3-yl]piperazine-1-carboxylate]",chromatographic logD,[1],3.07
same,IC50,Autotaxin (ATX); [7],23 ± 1.18 µM
O=C(OCc1cc(Cl)cc(Cl)c1)N1CCN(C2CCN(C(=O)c3cccc4c3COB4O)C2)CC1 (centres unmarked) [Compound 33],Chrom logD,[1],5.40
same,IC50,Autotaxin (ATX); [8],8 ± 2.58 µM
"O=C(OCc1cc(Cl)cc(Cl)c1)N1CCN(C2CN(C(=O)c3ccc4c(c3)COB4O)C2)CC1 [Compound 38, (3,5-dichlorophenyl)methyl 4-[1-(1-hydroxy-3H-2,1-benzoxaborole-5-carbonyl)azetidin-3-yl]piperazine-1-carboxylate]","LMS: predicted in vivo hepatic clearance, human",[2],79 %LBF
same,"PS (plasma stability), rat",[3],60.1 %remaining
same,solubility kinetic at 1 h,[4],30 to 100 µM
same,"LMS: predicted in vivo hepatic clearance, rat",[5],82 %LBF
same,chromatographic logD,[1],4.46
same,"PS (plasma stability), human",[6],79.1 %remaining
same,IC50,Autotaxin (ATX); [7],2 ± 1.73 µM
"O=C(OCc1ccccc1)N1CCN(C2CCN(C(=O)c3ccc4c(c3)B(O)OC4)C2)CC1 (centres unmarked) [Compound 39, benzyl 4-[1-(1-hydroxy-3H-2,1-benzoxaborole-6-carbonyl)pyrrolidin-3-yl]piperazine-1-carboxylate]",chromatographic logD,[1],3.05
same,IC50,Autotaxin (ATX); [7],> 50 µM
